Literature values as cited in patent US20170143824A1 (Teva Pharmaceutical Industries, Ltd., priority 2013, published 2017).

System: patients with RRMS
Settings: registration trials, compared with placebo

Substance: L-glutamic acid polymer with L-alanine, L-lysine, L-tyrosine, acetate (salt) [glatiramer acetate]
- reduction of relapse rate: about one third
